# From patent US20100330126A1, “Attenuated malaria blood-stage vaccine” (priority 2009, published 2010)
# T1: P. falciparum PNP (Plasmodium falciparum, UniProt Q8I3X4)
# T1 sequence (Q8I3X4 1-245): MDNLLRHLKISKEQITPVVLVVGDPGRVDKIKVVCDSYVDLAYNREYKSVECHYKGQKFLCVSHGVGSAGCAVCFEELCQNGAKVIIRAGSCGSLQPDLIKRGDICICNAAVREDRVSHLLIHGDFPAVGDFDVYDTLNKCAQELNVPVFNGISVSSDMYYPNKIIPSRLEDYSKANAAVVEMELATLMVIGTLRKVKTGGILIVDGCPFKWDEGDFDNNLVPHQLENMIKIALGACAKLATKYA
# B1: P. falciparum PNP (Plasmodium falciparum 3D7) (protein)
# chain: T1 sequence (Q8I3X4 1-245)
# How the values were obtained:
# Format in all cases: biochemical
# P. yoelii PNP = assay: Phosphorylase activity assay, kinetic constants of recombinant PyPNP; settings: for Km / kcat: substrate of P. yoelii PNP, 50 mM KPO4, pH 7.4
# Excerpt: Expression, Purification, and Characterization of PyPNP. Recombinant PyPNP was expressed with a C-terminal 6×His tag and the c-myc epitope and purified from induced bacterial culture by nickel affinity chromatography under native conditions. Like PfPNP, recombinant PyPNP elutes from gel filtration chromatography as a single peak consisting of homohexameric protein (≈180 kDa; data not shown). On a denatured SDS-PAGE gel, the protein ran as a single band with a molecular mass of 29.94 kDa. […] The catalytic efficiencies (kcat/Km) of PyPNP for these substrates were very similar to those observed in PfPNP (Table 2).
# Cloning and Expression of P. yoelii PNP. PyPNP was identified as a protein of 244 amino acids and 26.943 kDa by protein sequence homology to PfPNP (gene PY04622; PlasmoDB.org). The PyPNP open reading frame (ORF) sequence was amplified by PCR from genomic DNA of P. yoelii strain YM with primers PyPNP-F (5′-[…]-3′) (SEQ ID NO:8) and PyPNP-R (5′-[…]-3′) (SEQ ID NO:9). The 729 by PCR product was ligated into a pTrcHis2-TOPO vector (Invitrogen) and expressed in E. coli strain TOP 10. Recombinant PyPNP with a C-terminal 6×His tag and the c-myc epitope was induced with 1 mM IPTG at 37° C. for 10 h and purified by nickel chromatography. The purified PyPNP was >95% homogeneous based on denaturing polyacrylamide gel electrophoresis and staining with Coomassie blue. Protein concentration was measured by Bradford protein assay (Bio-Rad).
# (§1) Enzymatic Assays and Determination of Kinetic Constants. All phosphorylase activity assays were performed with purified enzyme in 50 mM KPO4, pH 7.4 as described^1. Briefly, phosphorylysis of inosine, 2′-deoxyinosine, and 5′-methylthioinosine was measured in a coupled assay with 115 milliunits/ml xanthine oxidase to convert hypoxanthine into uric acid. Uric acid formation was followed by spectrophotometric measurement at 293 nm (E293=12.9 mM^−1 cm^−1). Phosphorylysis of guanosine to guanine was monitored by measuring the disappearance of guanosine at 258 nm (E258=5.2 mM^−1 cm^−1). Adenosine and 5′-methylthioadenosine phosphorylase activities were measured by following the disappearance of the substrate at 265 nm (E256=1.9 mM^−1 cm^−1). Uridine phosphorylase activity was measured by following the conversion of uridine to uracil at 272 nm (E260=2.9 mM^−1 cm^−1). The Michaelis constant Km was determined as the substrate concentration at ½ the maximum velocity. The kcat was determined for each substrate by fits of substrate saturation data to the Michaelis-Menten equation. Values for kcat assume one catalytic site per subunit and are expressed as moles of product per second per mole of subunit.
# P. falciparum PNP = molecular target: T1, P. falciparum PNP; assay: Phosphorylase activity assay, kinetic constants of PfPNP; settings: substrate of P. falciparum PNP
# Procedure: as §1
# [1] = substrate: OC[C@H]1O[C@@H](n2cnc3c(O)ncnc32)[C@H](O)[C@@H]1O; assay: as above; settings: other: substrate of P. falciparum PNP; pH 7.4
# Procedure: as §1
# [2] = substrate: OC[C@H]1O[C@@H](n2cnc3c(O)ncnc32)C[C@@H]1O; assay: as above; settings: other: substrate of P. falciparum PNP; pH 7.4
# Procedure: as §1
# [3] = substrate: Nc1nc2c(ncn2[C@@H]2O[C@H](CO)[C@@H](O)[C@H]2O)c(=O)[nH]1; assay: as above; settings: other: substrate of P. falciparum PNP; pH 7.4
# Procedure: as §1
molecule,measurement,setting,value
OC[C@H]1O[C@@H](n2cnc3c(O)ncnc32)C[C@@H]1O [2′-deoxyinosine],Km,P. yoelii PNP,79 ± 10 µM
same,kcat,P. yoelii PNP,1.2 ± 0.1 s⁻¹
Nc1nc2c(ncn2[C@@H]2O[C@H](CO)[C@@H](O)[C@H]2O)c(=O)[nH]1 [Guanosine],Km,P. yoelii PNP,8.9 ± 1.6 µM
same,kcat,P. yoelii PNP,3.8 ± 0.2 s⁻¹
OC[C@H]1O[C@@H](n2cnc3c(O)ncnc32)[C@H](O)[C@@H]1O [Inosine],Km,P. yoelii PNP,8.6 ± 1.5 µM
same,kcat,P. yoelii PNP,3.5 ± 0.1 s⁻¹
CSc1ncnc2c1ncn2[C@@H]1O[C@H](CO)[C@@H](O)[C@H]1O [Methylthioinosine],Km,P. yoelii PNP,5 ± 0.4 µM
same,kcat,P. yoelii PNP,3.4 ± 0.1 s⁻¹
same,Km,P. falciparum PNP,10.8 ± 0.9 µM
same,kcat,P. falciparum PNP,2.6 ± 0.8 s⁻¹
O=c1ccn([C@@H]2O[C@H](CO)[C@@H](O)[C@H]2O)c(=O)[nH]1 [uridine],PyPNP activity with substrate,P. yoelii PNP; data not shown,no detectable activity
B1,Km,[1],4.7 ± 0.9 µM
same,kcat,[1],1.1 ± 0.2 s⁻¹
same,kcat/Km,[1],230000 M⁻¹ s⁻¹
same,Km,[2],91 ± 35 µM
same,kcat,[2],0.9 ± 0.3 s⁻¹
same,kcat/Km,[2],9800 M⁻¹ s⁻¹
same,Km,[3],9.4 ± 1.2 µM
same,kcat,[3],2.6 ± 0.5 s⁻¹
same,kcat/Km,[3],280000 M⁻¹ s⁻¹
